“Also recorded” adds a separate entry of the source.

Assay type in all cases: cell-based
The subject of one experiment is NF-κB. Briefly: Electrophoretic mobility shift assay of NF-κB induced by interleukin-18. As to conditions: incubation with IL-18, FIG. 3. For orientation: Mobility shift assays separate free from complexed probe on a gel.
The next experiment concerns RAW 264.5 macrophages. Kind of experiment: NO release (nitrite, Greiss reagent) upon induction with LPS and γ-IFN in macrophagic cells. Particulars: FIG. 1 / FIG. 4.
Experiment [1] has as its system herpes simplex virus (HSV). Briefly: Herpes simplex virus replication. As to conditions: FIG. 7.
For the next experiment, the system named is p-ERK. Kind of experiment: Western blot of p-ERK (p42/p44 MAP kinase). As to conditions: FIG. 5. In general terms: A western blot detects proteins with antibodies after separation by electrophoresis.
The next experiment concerns iNOS protein. Kind of experiment: Western blot of iNOS protein induction by LPS and γ-interferon in macrophagic cells. As to conditions: γ-IFN and LPS, FIG. 2.
The test system of the next experiment is cytomegalovirus (CMV). Kind of experiment: Cytomegalovirus replication in infected RAW 264.5 macrophages. As to conditions: RAW 264.5 macrophages infected with CMV; FIG. 6.

Turning to `Cc1cccc(Cc2nnc(C(=O)C(NC(=O)[C@@H]3CCCN3C(=O)[C@@H](NC(=O)OCc3ccccc3)C(C)C)C(C)C)o2)c1` (stereo partly drawn) [CE-2072, benzyloxycarbonyl-L-valyl-N-[1-(2-[5-(3-methylbenzyl)-1,3,4-oxadiazolyl]carbonyl)-2-(S)-methylpropyl]-L-prolinamide, reference compound], the “induction of active NF-κB” value in the experiment with NF-κB is “inhibit the induction of active NF-κB”. Moreover, the “NO levels induced by γ-IFN and LPS (measured as NO2-)” value with RAW 264.5 macrophages is listed as “inhibits NO levels”.

Turning to “α1-antitrypsin: glycoprotein of MW 51,000 with 417 amino acids and 3 oligosaccharide side chains; naturally occurring serine protease inhibitor”, the “replication of HSV” value in experiment [1] was “inhibits replication of HSV”. The “level and/or phosphorylation of p-ERK” value with p-ERK is reported as “inhibits the level and/or phosphorylation of p-ERK”. Further, the “induction of iNOS protein” value with iNOS protein is given as “inhibits induction of iNOS protein”. Besides, the “induction of active NF-κB” value with NF-κB is “inhibit the induction of active NF-κB”. The CMV replication entry with cytomegalovirus (CMV) was “blocks CMV replication”. The “NO levels induced by γ-IFN and LPS (measured as NO2-)” value in the experiment with RAW 264.5 macrophages is “efficiently block γ-IFN- and LPS-induced NO synthesis; also recorded: inhibits NO levels”.

The values above are taken from patent US6489308B1, “Inhibitors of serine protease activity, methods and compositions for treatment of nitric-oxide-induced clinical conditions” (Trustees of University of Technology Corporation, priority 1999, dated 2002).
